According to ChEMBL document CHEMBL5236590, “Discovery of Novel N-(5-(Pyridin-3-yl)-1H-indazol-3-yl)benzamide Derivatives as Potent Cyclin-Dependent Kinase 7 Inhibitors for the Treatment of Autosomal Dominant Polycystic Kidney Disease” (J Med Chem, 2022):

What was measured:
[1] = target: T1, Cyclin-dependent kinase 7 (Homo sapiens, UniProt P50613); test: Inhibition of CDK7 (unknown origin) assessed as phosphorylation of ULight 4EBP1 peptide substrate measured after 2 hrs by FRET-based LANCE Ultra KinSelect assay
T1 sequence (P50613 whole entry): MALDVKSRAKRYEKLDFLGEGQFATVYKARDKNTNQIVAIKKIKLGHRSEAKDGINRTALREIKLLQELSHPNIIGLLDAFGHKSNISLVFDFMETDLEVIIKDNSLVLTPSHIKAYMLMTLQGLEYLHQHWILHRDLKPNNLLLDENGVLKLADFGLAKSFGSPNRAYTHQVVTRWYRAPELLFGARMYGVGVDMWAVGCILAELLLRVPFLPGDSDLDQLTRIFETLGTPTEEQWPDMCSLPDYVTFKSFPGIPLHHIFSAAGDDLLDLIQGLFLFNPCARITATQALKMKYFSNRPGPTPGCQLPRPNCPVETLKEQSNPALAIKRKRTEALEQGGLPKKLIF

[2] = target: T2, Cyclin-dependent kinase 2 (Homo sapiens, UniProt P24941); test: Inhibition of CDK2 (unknown origin) assessed as phosphorylation of ULight 4EBP1 peptide substrate measured after 2 hrs by FRET-based LANCE Ultra KinSelect assay
[3] = target: T2, Cyclin-dependent kinase 2; test: Inhibition of CDK2 (unknown origin) assessed as phosphorylation of ULight 4EBP1 peptide substrate at 10 uM measured after 2 hrs by FRET-based LANCE Ultra KinSelect assay
[4] = target: T1, Cyclin-dependent kinase 7; test: Inhibition of CDK7 (unknown origin) assessed as phosphorylation of ULight 4EBP1 peptide substrate at 10 uM measured after 2 hrs by FRET-based LANCE Ultra KinSelect assay relative to control
[5] = system: THP-1; test: Cytotoxicity against human THP-1 cells assessed as cell viability measured after 24 hrs by CCK-8 assay; format: functional, cell-based; conditions: THP-1, 24 h

| IC50 [1] [nM] | IC50 [2] [nM] | SMILES | also measured |
| --- | --- | --- | --- |
| 2640 | 2400 | O=C(Nc1n[nH]c2ccc(-c3cncc(NC[C@H](CO)Cc4ccccc4)c3)cc12)c1ccccc1 |  |
| 7240 |  | O=C(Nc1n[nH]c2ccc(-c3cncc(O)c3)cc12)c1ccccc1 |  |
| 3780 |  | CNC(=O)c1cncc(-c2ccc3[nH]nc(NC(=O)c4ccccc4)c3c2)c1 |  |
| 3140 |  | N[C@H](C(=O)Nc1cncc(-c2ccc3[nH]nc(NC(=O)c4ccccc4)c3c2)c1)c1ccccc1 | inhibition [3]: 34% |
| 2490 |  | NCC(=O)Nc1cncc(-c2ccc3[nH]nc(NC(=O)c4ccccc4)c3c2)c1 |  |
| 692 | 120 | N[C@H](COc1cncc(-c2ccc3[nH]nc(NC(=O)c4ccccc4)c3c2)c1)c1ccccc1 |  |
| 670 | 609 | O=C(Nc1n[nH]c2ccc(-c3cncc(NC[C@@H](CO)Cc4ccccc4)c3)cc12)c1ccccc1 |  |
| 6 | 918 | C=CC(=O)Nc1ccc(C(=O)Nc2n[nH]c3ccc(-c4cncc(NC[C@H](O)c5ccccc5)c4)cc23)cc1 |  |
| 5530 |  | COc1cncc(-c2ccc3[nH]nc(NC(=O)c4ccccc4)c3c2)c1 |  |
| 2070 | 550 | N[C@H](Cc1ccccc1)C(=O)Nc1cncc(-c2ccc3[nH]nc(NC(=O)c4ccccc4)c3c2)c1 |  |
| 64 |  | C=CC(=O)Nc1ccc(C(=O)Nc2n[nH]c3ccc(-c4cncc(NC(=O)[C@@H](N)c5ccccc5)c4)cc23)cc1 |  |
| 335 | 97 | N[C@H](COc1cncc(-c2ccc3[nH]nc(NC(=O)c4ccccc4)c3c2)c1)Cc1ccccc1 |  |
| 2000 |  | NCCOc1cncc(-c2ccc3[nH]nc(NC(=O)c4ccccc4)c3c2)c1 |  |
| 19 | 756 | C=CC(=O)Nc1ccc(C(=O)Nc2n[nH]c3ccc(-c4cncc(N[C@H](CO)c5ccccc5)c4)cc23)cc1 |  |
| 7 | 477 | C=CC(=O)Nc1ccc(C(=O)Nc2n[nH]c3ccc(-c4cncc(NC(=O)[C@@H](N)Cc5ccccc5)c4)cc23)cc1 |  |
| 2390 | 499 | N[C@@H](COc1cncc(-c2ccc3[nH]nc(NC(=O)c4ccccc4)c3c2)c1)Cc1ccccc1 |  |
| 7550 |  | O=C(Nc1n[nH]c2ccc(-c3cccnc3)cc12)c1ccccc1 |  |

Further lines, the molecule ahead of its results:

| SMILES | IC50 [1] [nM] | IC50 [2] [nM] | also measured |
| --- | --- | --- | --- |
| NC[C@@H](CNc1cncc(-c2ccc3[nH]nc(NC(=O)c4ccccc4)c3c2)c1)c1ccccc1 | 395 | 190 |  |
| N[C@@H](COc1cncc(-c2ccc3[nH]nc(NC(=O)c4ccccc4)c3c2)c1)c1ccccc1 | 4920 |  | inhibition [3]: 48% |
| NCCNc1cncc(-c2ccc3[nH]nc(NC(=O)c4ccccc4)c3c2)c1 | 1560 |  |  |
| O=C(Nc1n[nH]c2ccc(-c3cncc(NC[C@@H](CO)c4ccccc4)c3)cc12)c1ccccc1 | 710 | 813 |  |
| O=C(Nc1n[nH]c2ccc(-c3cncc(NC[C@H](O)c4ccccc4)c3)cc12)c1ccccc1 | 311 | 269 |  |
| O=C(Nc1n[nH]c2ccc(-c3cncc(NCCO)c3)cc12)c1ccccc1 | 1710 |  |  |
| C=CC(=O)Nc1ccc(C(=O)Nc2n[nH]c3ccc(-c4cncc(N[C@H](CO)Cc5ccccc5)c4)cc23)cc1 | 5 | 595 |  |
| O=C(Nc1n[nH]c2ccc(-c3cncc(NC[C@H](CO)c4ccccc4)c3)cc12)c1ccccc1 | 1730 | 577 |  |
| N[C@@H](C(=O)Nc1cncc(-c2ccc3[nH]nc(NC(=O)c4ccccc4)c3c2)c1)c1ccccc1 |  |  | inhibition [3]: 29%; inhibition [4]: 34% |
| O=C(Nc1n[nH]c2ccc(-c3cncc(NC[C@@H](O)c4ccccc4)c3)cc12)c1ccccc1 | 440 | 802 |  |
| N[C@@H](Cc1ccccc1)C(=O)Nc1cncc(-c2ccc3[nH]nc(NC(=O)c4ccccc4)c3c2)c1 | 1340 | 1050 |  |
| Cc1cncc(-c2ccc3[nH]nc(NC(=O)c4ccccc4)c3c2)c1 | 2610 |  |  |
| CN(C)C/C=C/C(=O)Nc1ccc(C(=O)Nc2cccc(Nc3ncc(Cl)c(-c4c[nH]c5ccccc45)n3)c2)cc1 |  |  | IC50 [5]: 77000 nM |
| Nc1cncc(-c2ccc3[nH]nc(NC(=O)c4ccccc4)c3c2)c1 |  |  | inhibition [4]: 45% |
